Source: patent publication US20150190416A1, “FILAGGRIN PRODUCTION PROMOTER, THERAPEUTIC AGENT FOR DISEASES ASSOCIATED WITH REDUCTION IN PRODUCTION OF FILAGGRIN, AND METHOD FOR SCREENING FOR SAID THERAPEUTIC AGENT” (KYOTO UNIVERSITY, priority 2012, published 2015)

What was measured:
FLG promoter = assay: Transcription-activating effect on FLG promoter, luciferase assay in NHEK cells (Example 1); assay type: cell-based, human; details: 1 μM (Comparative Compound 2: 1 μM or 0.1 μM), 3 days
Experimental: In this example, the transcription activity on FLG promoter of an N-quinolylbenzamide derivative (Compound 1) was confirmed by using neonatal normal human epidermal keratinocytes (NHEK cells). The transcription activity of the FLG promoter was measured by luciferase assay.
1) 1.2×10^5 cells/ml of NHEK cells (KURABO INDUSTRIES LTD.) were plated on a 96-well plate at 80 μl/well (9.6×10^3 cells/well), and 100 μl of a culture medium containing a medium for proliferating normal human epidermal keratinocytes (HuMedia-KG2, KURABO INDUSTRIES LTD.) supplemented with human epidermal growth factor (hEGF) (0.1 ng/ml), insulin (10 μg/ml), hydrocortisone (0.5 μg/ml), gentamycin (50 μg/ml), amphotericin B (50 ng/ml), and bovine brain pituitary extract (BPE) (0.4%, v/v) were added to the plate, and the cells were cultured under the conditions of 37° C. and 5% CO2. […]
4) 3 days after the addition of the medicament in the step 3), reagents for luciferase assay (Bright-Glo™ Luciferase Assay System, Promega Corporation) were used and the luciferase activity was measured according to the manufacturer's protocol. […] After standing at rest for two minutes, 70 μl thereof were subjected to the measurement of the absorbance of luciferase.

GPR142 = assay: Action on adenylate cyclase activity (cAMP) in GPR142-overexpressing HEK293T cells (Examples 8 and 9); assay type: cell-based, human; details: forskolin 10 μM, IBMX 1 mM
Experimental: In this example, the cAMP production-suppressing effect of Compound 1 was confirmed.
1) 6×10^4 cells/well of HEK293T cells were plated on a collagen-coated 24-well plate, a culture medium containing DMEM medium (Invitrogen) supplemented with penicillin (50 μg/ml), streptomycin (50 μg/ml), and fetal bovine serum (FBS) (10%, v/v) was added to the plate, and the cells were cultured under the conditions of 37° C. and 5% CO2.
2) A GPR142PCXN mammalian expression vector was prepared in the same manner as in the step 2) of Example 7.
3) After culture for 1 day under the conditions of the step 1), HEK293T cells were transfected with 0.2 μg of the GPR142PCXN mammalian expression vector per well by using a transfection reagent Fugene™ HD (Promega Corporation) according to the manufacturer's protocol. As a control, cells transfected only with the PCXN mammalian expression vector were used.
4) After culture for 1 day after the transfection described above, 1 mM of isobutylmethylxanthine (IBMX), which was a cAMP phosphodiesterase inhibitory substance, was added to HEK293T cells, and thereafter, the cells were cultured for 10 minutes at 37° C.
5) Next, the medium was exchanged for the culture medium to which 0.1 nM to 1000 nM of a DMSO solution of Compound 1, 10 μM of forskolin, and 1 mM of IBMX per well were added, and the cells were further cultured for 20 minutes at 37° C. As a control, a solvent (vehicle), 10 μM of forskolin, and 1 mM of IBMX were added.
6) The cells cultured in the step 5) were lysed by 0.1 mol/L of HCl. The cAMP concentration within the cells was measured by using Cyclic AMP EIA Kit (Cayman Chemical Company) according to the manufacturer's protocol. The result is shown as the ratio (%) of the cAMP concentration in the cells treated with Compound 1 with respect to the cAMP concentration in the control example defined as 100%.
In this example, the cAMP production-suppressing effect of Compound 2 or 3 was confirmed.
HEK293T cells were cultured in the same manner as in the steps 1) to 4) of Example 8. Next, the cells were cultured in the same manner as in the step 5) of Example 8 except that, in the step 5) of Example 8, each of a methanol solution of Compound 3, a DMSO solution of Compound 2, and a DMSO solution of Comparative Compound 2 was used at 1,000 nM per well instead of Compound 1. The cAMP concentration in the cultured cells was measured in the same manner as in the step 6) of Example 8.

Row | Compound | transcription activity on FLG promoter (FLG promoter) | cAMP production-suppressing action, in words (GPR142; GPR142-overexpressing HEK293T cells, 1,000 nM) | cAMP production (GPR142; GPR142-overexpressing HEK293T cells, 0.1 nM to 1000 nM, 20 minutes) | decrease of cAMP production (GPR142; GPR142-overexpressing HEK293T cells, 1,000 nM, 20 minutes)
1 | O=C(CCCCCN1C(=O)c2cccc3cccc(c23)C1=O)NO [Comparative Compound 2, 6-(1,3-Dioxo-1H,3H-benzo[de]isoquinolin-2-yl)hexanoic acid hydroxyamide, reference compound] | the transcription activity on FLG promoter was observed | no cAMP production-suppressing action was observed |  | 
2 | CCc1ccc(OCc2ccccc2C(=O)Nc2ccc3nc(C)cc(N)c3c2)cc1.Cl [Compound 1, N-(4-Amino-2-methyl-6-quinolyl)-2-[(4-ethylphenoxy)methyl]benzamide hydrochloride] | had the transcription activity on FLG promoter |  | decreased cAMP production via GPR142 dose-dependently | 
3 | CC[C@H](C)[C@H]1O[C@]2(CC[C@@H]1C)C[C@@H]1C[C@@H](C/C=C(\C)[C@@H](O[C@H]3C[C@H](OC)[C@@H](O[C@H]4C[C@H](OC)[C@@H](O)[C@H](C)O4)[C@H](C)O3)[C@@H](C)/C=C/C=C3\CO[C@@H]4[C@H](O)C(C)=C[C@@H](C(=O)O1)[C@]34O)O2 [Compound 2, Ivermectin, reference compound] |  |  |  | about 20%
